{"source": "patent US11753407B2", "about": "“Compounds for treating spinal muscular atrophy” (PTC Therapeutics, Inc., priority 2012, dated 2023)", "key": {"[1]": {"system": "neonatal SMA Δ7 homozygous knockout mice", "test": "Survival of neonatal Δ7 SMA mice", "type": "in vivo", "method": "The change in the number of surviving mice over time is used to determine whether treatment with a test compound improves survival.\nProtocol. SMA Δ7 homozygous knockout mice are dosed intraperitoneally (IP) with test compound or vehicle (100% DMSO) QD from PND 3 until the dose regimen is switched to an oral dose BID in 0.5% hydroxypropylmethyl cellulose (HPMC) with 0.1% Tween-80 at a dose 3.16-fold higher than the dose used for IP and later switched to an oral dose QD in 0.5% hydroxypropylmethyl cellulose (HPMC) with 0.1% Tween-80 at a dose 6.32-fold higher than the dose used for IP. The number of surviving mice in each group is recorded every day and plotted as a percent of total number of mice. Tissues of SMA Δ7 and age-matched heterozygous mice are collected for the measurement of Smn protein levels and processed as detailed in Example 10. The total protein normalized Smn protein levels measured in the tissues are plotted as a percent of those in the age-matched heterozygous mice tissues, with the Smn level in heterozygous mice set to 100 percent. The level of Smn protein in the test compound treated mice tissue relative to that in heterozygous mice tissue is indicated as a percent value above each bar in the graph."}, "[2]": {"system": "human SMN1 minigene mRNA (SMN1-A minigene) in HEK293H cells", "test": "Human SMN1 minigene mRNA end-point semi-quantitative RT-PCR splicing assay in cultured cells", "type": "cell-based", "settings": "HEK293H cells transfected with SMN1-A minigene, increasing concentrations, 7 hours, end-point RT-PCR (FIG. 17)", "from_the_text": "The RT-PCR assay is used to visualize and quantify the levels of the human SMN1 minigene full length and Δ7 mRNA in primary cells and cell lines expressing the human SMN1 minigene construct treated with a test compound.\nUsing the procedure for the preparation of the SMN2 minigene construct described in Biological Example 1, the SMN1 version of the minigene is generated by replacing the sixth nucleotide of exon 7 (a thymine residue) of the SMN2-A minigene construct to cytosine using site-directed mutagenesis. Thus, similar to the SMN2-A minigene construct, the SMN1 minigene construct has a single adenine residue inserted after nucleic residue 48 of exon 7. The SMN1 minigene construct is referred to as SMN1-A.\nProtocol. HEK293H cells (10,000 cells/well/199 μL) were transfected, using FuGENE-6 reagent, in a 96-well plate with 15 ng of the SMN1-A minigene reporter plasmid per well. Cells were incubated for 24 hours following transfection. Test compounds were serially diluted 3.16-fold in 100% DMSO to generate a 7-point concentration curve. A solution of test compound (1 μL, 200× in DMSO) was added to each test well. 1 μL DMSO was added to each control well. The plate was incubated for 7 hours in a cell culture incubator (37° C., 5% CO2, 100% relative humidity). The cells were then lysed in Cells-To-Ct lysis buffer and the lysates were stored at −80° C.\nTwo SMN spliced mRNA are generated from the SMN1 minigene. The term “SMN1 minigene FL” refers to the first spliced product containing exon 7, corresponding to full length SMN1 mRNA. The term “SMN1 minigene Δ7” refers to the second product lacking exon 7.\nSMN minigene FL and Δ7 mRNA are amplified using the primers in Table 11. Primer SMN Forward C (SEQ ID NO. 11) hybridizes to a nucleotide sequence in exon 6 (nucleotide 43 to nucleotide 63), primer SMN Reverse A (SEQ ID NO. 2) hybridizes to a nucleotide sequence in the coding sequence of Firefly luciferase. The combination of these two oligonucleotides detects only SMN1 or SMN2 minigenes (RT-PCR) and will not detect endogenous SMN1 or SMN2 genes. Since the HEK293H cells used in Example 16 were transfected with only the human SMN1 minigene, RT-PCR can visualize and quantify only SMN1 minigene full-length and SMN1 minigene Δ7 mRNA.\nTo synthesize cDNA, 5 μL of lysate, 4 μL of 5× iScript reaction mix, 1 μL of reverse transcriptase, and 10 μL of water are combined and incubated 5 min at 25° C. followed by 30 min at 42° C., followed by 5 min at 85° C. The cDNA solution is stored at −20° C.\nTo perform endpoint PCR, 5 μL of cDNA, 0.2 μL of 100 μM forward primer, 0.2 μL of 100 μM reverse primer, and 22.5 μL of polymerase super mix are combined in a 96 well semiskirted PCR plate. PCR is carried out at the following temperatures for the indicated time: Step 1: 94° C. (2 min), Step 2: 94° C. […]"}, "[3]": {"system": "neonatal SMA Δ7 homozygous knockout mice", "test": "Righting reflex in neonatal Δ7 SMA mice", "type": "in vivo", "settings": "IP QD from PND 3, versus vehicle (FIG. 14)", "method": "The functional change in righting reflex of neonatal SMA mice is used to determine whether treatment with a test compound improves righting reflex.\nProtocol. SMA Δ7 homozygous knockout mice are dosed intraperitoneally (IP) with test compound or vehicle (100% DMSO) QD from PND 3 until the dose regimen is switched to an oral dose BID in 0.5% hydroxypropylmethyl cellulose (HPMC) with 0.1% Tween-80 at a dose 3.16-fold higher than the dose used for IP. The righting reflex time is measured as the time taken by a mouse to flip over onto its feet after being laid on its back. Righting reflex is measured five times for each mouse (allowing a maximal time of 30 sec for each try) with 5 minutes between each measurement. The righting reflex time for SMA Δ7 homozygous knockout mice treated with test compound or vehicle and age-matched heterozygous mice is measured on PND 10, 14 and 18 and plotted."}}, "data": [{"smiles": "COc1ccc(-c2cc(=O)n3cc(N4CCNCC4)ccc3n2)cc1OC", "note": "[Cpd 6, 2-(3,4-dimethoxyphenyl)-7-(piperazin-1-yl)-4H-pyrido[1,2-a]pyrimidin-4-one]", "values": [{"measurement": "survival", "setting": "[1]; IP QD PND 3 to PND 30, then orally BID from PND 31 until study end (FIG. 15a)", "result": "improved compared to vehicle treated mice"}, {"measurement": "SMN1 minigene FL mRNA", "setting": "[2]", "result": "progressively more SMN1 minigene FL mRNA"}, {"measurement": "SMN1 minigene Δ7 mRNA", "setting": "[2]", "result": "less SMN1 minigene Δ7 mRNA"}, {"measurement": "righting reflex", "setting": "[3]", "result": "improved compared to vehicle treated mice"}]}, {"smiles": "Cc1cn2nc(-c3cc(=O)n4cc(N5CCN(C)CC5)ccc4n3)cc2c(C)n1", "note": "[Cpd 170, 2-(4,6-dimethylpyrazolo[1,5-a]pyrazin-2-yl)-7-(4-methylpiperazin-1-yl)-4H-pyrido[1,2-a]pyrimidin-4-one]", "values": [{"measurement": "survival", "setting": "[1]; IP QD PND 3 to PND 23, then orally BID from PND 24 until study end (FIG. 15b)", "result": "improved compared to vehicle treated mice"}, {"measurement": "SMN1 minigene FL mRNA", "setting": "[2]", "result": "progressively more SMN1 minigene FL mRNA"}, {"measurement": "SMN1 minigene Δ7 mRNA", "setting": "[2]", "result": "less SMN1 minigene Δ7 mRNA"}, {"measurement": "righting reflex", "setting": "[3]", "result": "improved compared to vehicle treated mice"}]}]}
